In US9089514B2, “Composition and method for inhibiting biogenic sulfide generation” (Arkion Life Sciences, priority 2010, dated 2015):
“And” between values parts separate entries of the source, which are not always exact repeats. Identical values can stand only once.

Tests used:
Type in all cases: cell-based, Prudhoe Bay sulfate reducing bacteria
[1] = test system: sulfate reducing bacteria (SRB) biofilms; test: Test Series #2: AQ, AHQ and AQ:AHQ slurries, sulfide monitoring in SRB biofilm tubes; conditions: for Sulfides Day 1: day 1, same combined mass of active AQ plus AHQ; for Sulfides Day 1 / Sulfides Day 2 / Sulfides Day 3: AHQ-slurry-2 used; for Sulfides Day 2: day 2, same combined mass of active AQ plus AHQ; for Sulfides Day 3: day 3, same combined mass of active AQ plus AHQ
Protocol: (§1) 1. Load 7 grams of crushed granite chips into 15-ml culture tubes; autoclave.
(§2) 2. Prepare an inoculum by adding a culture of Prudhoe Bay sulfate reducing bacteria to a flask containing an appropriate iron-free culture medium for sulfate reducing bacteria that further contains 90% deaerated artificial sea water. Incubate bacteria anaerobically at 30° C. for 3-4 days.
(§3) 3. Fill each 15 ml culture tube containing granite chips with the inoculum; incubate tubes anaerobically at 30° C. for 7-11 days in a Lab-Line Orbit Environ-Shaker set at 30° C. and 120 rpm. All incubation steps for the bacteria in the culture tubes were performed is in the Environ-Shaker.
(§4) 4. Pour off spent medium and fill with fresh medium. Incubate for 6-7 days then replace medium with fresh medium again. Repeat medium change after 4-8 days and incubate for 3-5 additional days.
(§5) 5. Treat the biofilms that have grown on the granite chips as described below. Incubate at 30° C.
(§6) 6. Monitor the aqueous sulfide content in the tubes daily for up to three days, beginning the day after treatment, to determine the effectiveness of each treatment option on generation of hydrogen sulfide. Sulfide dissolved in the medium was determined in mg/L using Hach Method 8131 for the Hach DR-2010 spectrophotometer. The method utilizes methylene blue to measure total sulfides. The sulfide level in each tube was determined by gently inverting the tube several times, uncapping the tube and quickly removing a 125 μl aliquot of solution, and recapping the tube. The aliquot was diluted in 24.9 ml of deionized water in a quartz cuvette for the Hach procedure. The procedure is summarized in Table 1 for three separate test series.
(§7) This test series was performed to further compare the efficacy of slurries of AHQ and AQ and combinations of AHQ/AQ in slurries in controlling H2S emissions. AHQ-slurry-2 was used in this series of experiments. The tests were performed by first removing the spent medium from the tubes, refilling with fresh medium, treating with the test solution, tumbling the tubes for two minutes, and then incubating at 30° C. in the Lab-Line Orbit Environ-Shaker.
Each test was made with the same combined mass of active AQ plus AHQ. Results, as summarized in Table 3 and FIG. 2, confirmed the results of Series #1 in that all treatments were effective compared with the control.

[2] = test system: sulfate reducing bacteria (SRB) biofilms; test: Test Series #3b: simulated gravity settling, AQ vs AHQ-slurry-2, sulfide monitoring
Protocol: as §6
(§8) Gravity settling in the tank was simulated by spinning the culture tubes after treatment in a laboratory centrifuge at 2000 to 2700 rpm. The AQ or AHQ particles then “settled” to the bottom of the tube and were able to deposit into the biofilm on the granite chips. The medium above the granite chips was then removed and replaced with fresh medium. The tubes were then incubated at 30° C. in the Lab-Line Orbit Environ-Shaker. The concentration of AQ or AHQ in the removed medium was analyzed to determine the amount of AQ or AHQ deposited in the biofilm. Experiments were run with duplicate samples.
Test Series #3b was performed with the same procedure as Test Series #3a to compare the efficacy of the AQ test mixture (AQ) with that of AHQ-slurry-2 at the same AHQ or AQ mass loading (0.254 mg). The tubes were spun for 20 seconds.

[3] = test system: sulfate reducing bacteria (SRB) biofilms; test: Test Series #1: inhibition of H2S biogeneration from SRB biofilms on granite chips; conditions: for Sulfides Day 1: day 1 after treatment; for Sulfides Day 1 / Sulfides Day 2 / Sulfides Day 3: THPS 51 ppmw, AQ or AHQ (AHQ-slurry-1) 25 ppmw per tube, 30° C.; for Sulfides Day 2: day 2 after treatment; for Sulfides Day 3: day 3 after treatment
Protocol: as §1, §2, §3, §4, §5, §6
Following the growth of the sulfate reducing bacteria (SRB) biofilms on the granite chips in the culture tubes, the biofilms were treated by injecting the appropriate test solution and then gently tumbling the tubes for two minutes on a Barnstead/Thermolyne Labquake Tube Shaker to allow the treatment solution to dynamically contact the biofilms.
Test compound solutions were injected into the tubes. THPS was added to 51 ppmw per tube. AQ and AHQ-slurry-1 were added to 25 ppmw AQ or AHQ per tube. Each tube contained about 14 ml of medium. The tubes were tumbled for two minutes, then moved to a nitrogen glove bag. The liquid was removed and the tubes were washed once with is medium and then refilled with medium. The tubes were then tumbled once more for two minutes before being placed in a Lab-Line Orbit Environ-Shaker set at 30° C. and 120 rpm for incubation.
Control tubes contained biofilms on granite chips and culture medium, but no test compound. Control tubes were otherwise handled as described above for test-compound tubes.
In THPS-treated tubes all of the residual THPS was removed so that biocidal activity occurred only during the contact time while tumbling. In AQ and AHQ treated tubes, residual test solutions were allowed to remain in the tubes to simulate treatment in a tank, where AQ or AHQ settles in the biofilm/sludge at the bottom of the vessel. Treatments were performed in duplicate.

[4] = test system: sulfate reducing bacteria (SRB) biofilms; test: Test Series #3a: simulated gravity settling in tank (centrifugation), sulfide monitoring; conditions: 0.254 mg AHQ
Protocol: as §6, §8
Two series of tests were performed with this procedure. Series #3a compared the efficacy of treating with the AHQ di-alkali salt test solution (AHQ) and the AHQ test mixture #2 (AHQ-slurry-2) at the same AHQ mass loading (0.254 mg AHQ). Two different centrifugation times (20 sec, 60 sec) were utilized in Test Series #3a to represent two different tank residence times.

[5] = test system: sulfate reducing bacteria (SRB) biofilms; test: AHQ di-alkali salt solution vs AHQ-slurry-2 by the Test Series #2 procedure; conditions: 18 ppmw AHQ
Protocol: as §6, §7
Each test treatment contained 18 ppmw AHQ. […] However, under some circumstances, larger particle sizes are preferable. […]

Compound | inhibiting the generation of H2S (comparison in words) [1] | Sulfides Day 1 [1] | Sulfides Day 2 [1] | Sulfides Day 3 [1] | inhibiting H2S generation (comparison in words) [2] | inhibiting H2S biogeneration from SRB biofilms (comparison in words) [3] | Sulfides Day 1 [3] | Sulfides Day 2 [3] | Sulfides Day 3 [3] | Sulfides Day 1 ([4]; centrifugation 20 sec) | Sulfides Day 2 ([4]; centrifugation 20 sec) | Sulfides Day 3 ([4]; centrifugation 20 sec) | Sulfides Day 1 ([4]; centrifugation 60 sec) | Sulfides Day 2 ([4]; centrifugation 60 sec) | Sulfides Day 3 ([4]; centrifugation 60 sec) | reducing sulfides (comparison in words) [5] | sulfides on day 3 of treatment ([5]; Test Series #2 procedure (no settling)) | Sulfides Day 1 ([2]; spun 20 sec, 0.254 mg AHQ or AQ, day 1) | Sulfides Day 2 ([2]; spun 20 sec, 0.254 mg AHQ or AQ, day 2)
Oc1c2ccccc2c(O)c2ccccc12 [AHQ, anthrahydroquinone] | more effective than AQ solution alone or AHQ/AQ neutral slurry combinations | 22.2 mg/L and 19.6 mg/L | 31 mg/L and 26.6 mg/L | 36.8 mg/L and 36.4 mg/L | superior to AQ in inhibiting H2S generation | superior to THPS, AQ, and the combination of THPS and AQ | 9.2 mg/L and 11.2 mg/L | 23 mg/L and 27 mg/L | 30.6 mg/L and 31 mg/L | – | – | – | – | – | – | – | – | – | –
[Na+].[Na+].[O-]c1c2ccccc2c([O-])c2ccccc12 [AHQ, dialkali salt solution, anthrahydroquinone di-alkali salt] | – | – | – | – | – | – | – | – | – | 29 mg/L and 31 mg/L | 37.6 mg/L and 45.2 mg/L | 42 mg/L and 48.6 mg/L | 36.6 mg/L and 21.8 mg/L | 50.8 mg/L and 37 mg/L | 53.6 mg/L and 42.6 mg/L | superior to AHQ neutral slurry in reducing sulfides | 7.4 mg/L | – | –
O=C1c2ccccc2C(=O)c2ccccc21 [AQ, anthraquinone] | – | 33.2 mg/L and 30.4 mg/L | 40 mg/L and 38.8 mg/L | 44.4 mg/L and 43.2 mg/L | – | comparable to THPS treatment | 22.6 mg/L and 19 mg/L | 41.2 mg/L and 34.6 mg/L | 46.2 mg/L and 40.8 mg/L | – | – | – | – | – | – | – | – | 43.8 mg/L and 33.8 mg/L | 54.2 mg/L and 50.2 mg/L
tetrakishydroxymethylphosphonium sulfate [THPS] | – | – | – | – | – | – | 18 mg/L and 19.8 mg/L | 39.6 mg/L and 38.4 mg/L | 46.2 mg/L | – | – | – | – | – | – | – | – | – | –
